The target in assay [1] is T1, Prostaglandin G/H synthase 1 (Ovis aries, UniProt P05979).
T1 sequence (P05979 whole entry): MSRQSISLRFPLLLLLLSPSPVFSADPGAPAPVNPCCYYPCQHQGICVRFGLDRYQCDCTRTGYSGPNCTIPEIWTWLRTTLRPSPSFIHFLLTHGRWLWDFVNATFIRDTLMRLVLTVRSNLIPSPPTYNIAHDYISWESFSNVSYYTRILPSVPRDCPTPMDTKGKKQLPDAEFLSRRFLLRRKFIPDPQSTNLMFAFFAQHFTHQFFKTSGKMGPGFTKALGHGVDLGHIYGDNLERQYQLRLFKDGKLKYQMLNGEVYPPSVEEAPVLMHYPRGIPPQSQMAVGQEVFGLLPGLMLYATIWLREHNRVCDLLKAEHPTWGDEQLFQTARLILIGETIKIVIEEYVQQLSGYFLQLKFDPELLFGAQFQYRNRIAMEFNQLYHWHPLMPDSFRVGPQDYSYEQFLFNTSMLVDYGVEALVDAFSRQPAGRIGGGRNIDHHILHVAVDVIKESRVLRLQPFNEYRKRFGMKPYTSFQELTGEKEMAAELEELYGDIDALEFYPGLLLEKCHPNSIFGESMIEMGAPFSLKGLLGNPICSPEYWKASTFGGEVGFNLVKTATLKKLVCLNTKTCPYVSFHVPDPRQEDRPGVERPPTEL
The experiment in a line: Inhibition of ovine COX1 assessed as inhibition of PGF2a formation after 20 mins by Ellman's method. (In general: In Ellman's method for cholinesterases, released thiocholine reacts with DTNB.)

The target of assay [2] is T2, Prostaglandin G/H synthase 1 (Ovis aries) (UniProt P05979).
T2 sequence (whole entry): T1 sequence (P05979 whole entry)
The experiment in a line: Inhibition of ovine COX1 assessed as inhibition of PGF2a formation at 100 nM after 20 mins by Ellman's method.

Assay [3] deals with T2, Prostaglandin G/H synthase 1 (Ovis aries). The experiment in a line: Inhibition of ovine COX1 assessed as inhibition of PGF2a formation at 1 uM after 20 mins by Ellman's method.
Assay [4] has the same target. The experiment in a line: Inhibition of ovine COX1 assessed as inhibition of PGF2a formation at 10 uM after 20 mins by Ellman's method.
Assay [5] has the same target. The experiment in a line: Inhibition of ovine COX1 assessed as inhibition of PGF2a formation at 100 uM after 20 mins by Ellman's method.
Assay [6] has the same target. The experiment in a line: Inhibition of ovine COX1 assessed as inhibition of PGF2a formation at 0.01 uM after 20 mins by Ellman's method.
Assay [7] in a line: Growth inhibition of human NCI60 cells after 48 hrs by sulforhodamine B assay. Type of assay: functional. As to conditions: NCI60, 48 h. Background: The SRB assay estimates cell density from bound dye.

Each structure is given as a SMILES string.

One may read the IC50 as the concentration that gives 50% inhibition. Broadly, the inhibition is how much of the control response was suppressed. As for `N#CSC[C@@H]1C[C@@](O)(c2ccccc2)C[C@H](c2ccc(Br)cc2)O1` (relative stereo), the IC50 in assay [1] is 209 nM. The figures for the inhibition in assay [2], in assay [3] and in assay [4] were 48%, 65% and 94%, respectively.

`CCSC[C@@H]1C[C@](O)(c2ccccc2)[C@@H](c2ccccc2)[C@H](c2ccccc2)O1` (relative stereo): the inhibition was determined as 52% in assay [5], 16% in assay [3] and 38% in assay [4]. In addition, the IC50 in assay [1] came out at 13900 nM.

With `N#CSC[C@@H]1C[C@](O)(c2ccccc2)[C@@H](c2ccccc2)[C@H](c2ccccc2)O1` (relative stereo), the values for the inhibition in assay [5], in assay [3] and in assay [4] were 50%, 24% and 27%, respectively. Also, in assay [1], the IC50 amounted to 64000 nM.

As for `CCSC[C@@H]1C[C@@](O)(c2ccccc2)C[C@H](c2ccc(Cl)cc2)O1` (relative stereo), in assay [1], the IC50 was 413 nM. In addition, the inhibition in assay [2] stood at 45%; in assay [3] it was 60%; in assay [4] it was 94%.

Turning to `CCSC[C@@H]1C[C@@](O)(c2ccccc2)C[C@H](c2ccc(Br)cc2)O1` (relative stereo), in assay [1], the IC50 amounted to 562 nM. Moreover, the inhibition in assay [2] was 40%; in assay [3], 58%; in assay [4], 94%.

On to `N#CSC[C@@H]1C[C@](O)(c2ccccc2)[C@@H](c2ccccc2)[C@H](c2ccc(Br)cc2)O1` (relative stereo), for which the results for the inhibition in assay [5], in assay [3] and in assay [4] were 50%, 28% and 29%, respectively. Besides, the IC50 in assay [1] was determined as 13000 nM.

Turning to `N#CSC[C@@H]1C[C@@](O)(c2ccccc2)C[C@H](c2ccccc2)O1` (relative stereo), the IC50 in assay [1] was found to be 2790 nM. For the same molecule, the figures for the inhibition in assay [2], in assay [3] and in assay [4] were 26%, 39% and 94%, respectively.

Regarding `CCSC[C@@H]1C[C@@](O)(c2ccccc2)C[C@H](C)O1` (relative stereo), the inhibition in assay [5] was 62%; in assay [2] it was 40%; in assay [6], 32%; in assay [3], 51%; in assay [4], 55%. Further, in assay [1], the IC50 came out at 347 nM.

`C[C@H]1C[C@](O)(c2ccccc2)C[C@@H](CSC#N)O1` (relative stereo): the inhibition turned out to be 65% in assay [5]; 38% in assay [2]; 32% in assay [6]; 55% in assay [3]; 60% in assay [4]. Further, the IC50 in assay [1] turned out to be 368 nM.

In the case of `CCSC[C@@H]1C[C@@](O)(c2ccccc2)C[C@H](c2ccccc2)O1` (relative stereo), the 50% inhibitory concentration (IC50) in assay [1] worked out at 2930 nM. Further, the inhibition turned out to be 25% in assay [2], 37% in assay [3] and 94% in assay [4].

Consider `CCSC[C@@H]1C[C@](O)(c2ccccc2)[C@@H](c2ccccc2)[C@H](c2ccc(Br)cc2)O1` (relative stereo), for which the inhibition was 60% in assay [5], 41% in assay [3] and 38% in assay [4]. In addition, in assay [1], the IC50 is 23800 nM.

By GI50 is commonly meant the concentration that inhibits growth by half. Take `Cc1ccc(-c2cc(C(F)(F)F)nn2-c2ccc(S(N)(=O)=O)cc2)cc1` [CELECOXIB]: the concentration for 50% growth inhibition (GI50) in assay [7] is 17500 nM. Moreover, the CC50 in assay [7] (read-out: LC50 (the source's name)) worked out at 63300 nM.

Values taken from ChEMBL document CHEMBL1158584, “Mono-, di-, and triaryl substituted tetrahydropyrans as cyclooxygenase-2 and tumor growth inhibitors. Synthesis and biological evaluation” (J Med Chem, 2010).
